Common to all, as to format: functional
The subject of test [1] is Feline immunodeficiency virus. Put plainly: Tested for the percentage decrease in replication of FIV-34TF10 at a concentration of 0.1 nM.
For test [2], the system named is Feline immunodeficiency virus. Description: Effect on replication of FIV 34TF10env in chronically infected feline glial cell lines G355-5 at 1 nM conc; RT activity per ug/mL of protein concentration.
For test [3], the system named is Feline immunodeficiency virus. Put plainly: Effect on replication of FIV 34TF10 in chronically infected feline glial cell lines G355-5 at 0.01 nM conc; RT activity per ug/mL of protein concentration.
Test [4] deals with Feline immunodeficiency virus. Description: Effect on replication of FIV 34TF10 in chronically infected feline glial cell lines G355-5 at 0.1 nM conc; RT activity per ug/mL of protein concentration.
For test [5], the system named is Feline immunodeficiency virus. Put plainly: Effect on replication of FIV 34TF10 in chronically infected feline glial cell lines G355-5 at 0 nM conc; RT activity per ug/mL of protein concentration.
The subject of test [6] is Feline immunodeficiency virus. Put plainly: Effect on replication of FIV 34TF10 in chronically infected feline glial cell lines G355-5 at 10000 nM conc; RT activity per ug/mL of protein concentration.
In test [7] the test system is Feline immunodeficiency virus. Put plainly: Effect on replication of FIV 34TF10 in chronically infected feline glial cell lines G355-5 at 1000 nM conc; RT activity per ug/mL of protein concentration.
Test [8] relates to Feline immunodeficiency virus. Put plainly: Effect on replication of FIV 34TF10 in chronically infected feline glial cell lines G355-5 at 100 nM conc; RT activity per ug/mL of protein concentration.
Test [9] deals with Feline immunodeficiency virus. Description: Effect on replication of FIV 34TF10 in chronically infected feline glial cell lines G355-5 at 10 nM conc; RT activity per ug/mL of protein concentration.
In test [10] the test system is Feline immunodeficiency virus. Description: Effect on replication of FIV 34TF10 in chronically infected feline glial cell lines G355-5 at 1 nM conc; RT activity per ug/mL of protein concentration.
Test [11] has as its system Feline immunodeficiency virus. Put plainly: Effect on replication of FIV 34TF10env in chronically infected feline glial cell lines G355-5 at 0.01 nM conc; RT activity per ug/mL of protein concentration.
Test [12] has as its system Feline immunodeficiency virus. Description: Effect on replication of FIV 34TF10env in chronically infected feline glial cell lines G355-5 at 0.1 nM conc; RT activity per ug/mL of protein concentration.
The test system of test [13] is Feline immunodeficiency virus. Put plainly: Effect on replication of FIV 34TF10env in chronically infected feline glial cell lines G355-5 at 0 nM conc; RT activity per ug/mL of protein concentration.
The subject of test [14] is Feline immunodeficiency virus. Description: Effect on replication of FIV 34TF10env in chronically infected feline glial cell lines G355-5 at 10000 nM conc; RT activity per ug/mL of protein concentration.
Test [15] relates to Feline immunodeficiency virus. Put plainly: Effect on replication of FIV 34TF10env in chronically infected feline glial cell lines G355-5 at 1000 nM conc; RT activity per ug/mL of protein concentration.
Test [16] has as its system Feline immunodeficiency virus. Put plainly: Effect on replication of FIV 34TF10env in chronically infected feline glial cell lines G355-5 at 100 nM conc; RT activity per ug/mL of protein concentration.
Test [17] deals with Feline immunodeficiency virus. Put plainly: Effect on replication of FIV 34TF10env in chronically infected feline glial cell lines G355-5 at 10 nM conc; RT activity per ug/mL of protein concentration.

Turning to `CN(C)CCCNC(=O)c1cc(NC(=O)c2cc(NC(=O)c3cc(NC(=O)c4ccccc4C(=O)O)cn3C)cn2C)cn1C`, the Decrease in test [1] is 75%. Also, the Reverse transcriptase activity in [2] is 1600; in [3] it was 665; in test [4], 390; in [5] it was 1200; in [6] it was 950; in [7], 480. Also, the Reverse transcriptase activity in [8] is given as 490; in test [9], 475; in [10], 800; in test [11], 2000; in test [12], 1990; in [13], 1590. Also, the Reverse transcriptase activity is 1800 in test [14], 2100 in test [15], 1900 in test [16] and 1700 in test [17].
In test [1], `Cc1nc(N)sc1C(=O)Nc1cn(C)c(C(=O)Nc2cn(C)c(C(=O)NCCCN(C)C)n2)n1` registered a Decrease of 75%. In addition, the Reverse transcriptase activity in test [2] is on record as 2000; in test [3], 675; in test [4], 350; in [5], 1025; in test [6], 950; in [7], 500. For the same molecule, the Reverse transcriptase activity came to 550 in test [8]; 475 in test [9]; 800 in test [10]; 2000 in [11]; 1500 in [12]; 2200 in test [13]. The Reverse transcriptase activity in test [14] was 2100; in test [15], 1700; in test [16], 1800; in [17], 1500.

For the origin of these results see ChEMBL document CHEMBL1135453, “Inhibition of feline immunodeficiency virus (FIV) replication by DNA binding polyamides” (2002).
